Experimental findings from patent publication US20260102390A1, “4-(2-(4-((2,4-DIOXOTHIAZOLIDIN-5-YL)METHYL)PHENOXY) DERIVATIVES AS PPARgamma AGONISTS AND AUTOTAXIN INHIBITORS FOR USE IN THE TREATMENT OF FIBROSIS” (Uni-Pharma Kleon Tsetis Pharmaceutical Laboratories S.A., priority 2022, published 2026) are described below.

Series [1] concerns the target ATX (UniProt Q9R1E6). The series can be described thus: ATX inhibitory activity, Amplex Red method. Type of series: biochemical. The conditions noted are these: LPC 16:0 50 μM, two independent experiments, read-out: IC50 against ATX. Here is the method: The inhibition of ATX enzyme activity of the pharmaceutical compound A-1 was measured in vitro by applying the Amplex Red method. Briefly, 2 μL of concentration from 0.001 to 5 μmol/L of derivative […] in DMSO was incubated with 50 μL ATX 8 nM (up to a final concentration of 2 nM and 1 nM for human ATX) and 48 μL of a buffer solution (50 mM Tris-Cl of pH 8.0 and 5 mM CaCl2) for 15 minutes at 37° C. Subsequently, 50 μL of a buffer solution containing 200 μM LPC 16:0 (final concentration 50 μM) was added to the reaction mixture followed by incubation for another 30 minutes at 37° C. Finally, 50 μL of working solution containing 200 μM Amplex Red reagent and choline oxidase (0.2 U/mL) […] HRP (2 U/mL), in 50 mM Tris-HCl at pH 8.0 and 5 mM CaCl2, was added to begin the reaction. The reaction was monitored at 37° C., in a fluorescence plate reader (Tecan Infinite 200) using excitation at 530 nm and reading at 590 nm, every five minutes for 30 minutes at 37° C. The IC50 value was calculated from two independent experiments, using the sigmoid dose-response curve (PrismH software) from the equation f=y0+a/(1+exp(−(x−x0)/b) given from SigmaPlot 11.0.

Series [2] has as its target T1, Mouse ATX (Mus musculus, UniProt Q9R1E6).
T1 construct: purchased Sino Biological
The series can be described thus: Mode of inhibition of ATX, modified Amplex assay (Lineweaver-Burk). The series is classed as biochemical. Particulars: inhibitor 1-7.5 μM, LPC 25, 50, 100 μM. As to the method: To determine the mode of inhibition of ATX by each inhibitor, a modified Amplex assay was employed. In brief, various concentrations of inhibitors (1, 2.5, 5 and 7.5 μM) were tested against various substrate concentrations (LPC 25, 50, 100 μM). Mouse ATX from Sino Biological was used in all mode of inhibition assays. Thereafter, the velocity (V) of the reaction was calculated and the reciprocal of velocity (1/V) was plotted against the reciprocal of substrate concentration (1/S) in Lineweaver-Burk graphs using GraphPad Software (GraphPad Software, San Diego, CA, USA).

The test system of series [3] is choline oxidase. As to the kind of experiment: 2nd reaction of the Amplex Red assay (counter-test). Type of series: biochemical. The conditions noted are these: 2nd reaction of Amplex Red assay.
The target in series [4] is T2, HRP peroxidase (Armoracia rusticana, UniProt P00433).
T2 sequence (P00433 31-338 limits assumed): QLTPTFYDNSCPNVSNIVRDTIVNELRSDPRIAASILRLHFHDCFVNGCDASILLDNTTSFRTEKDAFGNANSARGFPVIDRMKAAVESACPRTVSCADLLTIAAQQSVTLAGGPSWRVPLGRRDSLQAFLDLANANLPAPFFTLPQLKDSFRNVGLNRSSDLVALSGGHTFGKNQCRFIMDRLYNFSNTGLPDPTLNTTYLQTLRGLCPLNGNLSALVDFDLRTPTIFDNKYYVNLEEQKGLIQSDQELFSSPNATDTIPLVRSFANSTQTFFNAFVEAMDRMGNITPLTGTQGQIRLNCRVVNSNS
As to the kind of experiment: 3rd reaction of the Amplex Red assay (counter-test). Type of series: biochemical. The conditions noted are these: 3rd reaction of Amplex Red assay.

Series [5] in a line: In vitro absorption assay, membrane permeability. The conditions noted are these: dog, MDCK, MDCKII. Type of series: in vitro ADME. As to the method: The in vitro absorption assay was performed in the kidney MDCKII cell line and involves the permeability from A to B, when A and B are separated by an MDCKII cell membrane. Ideally, a compound should have a high A to B permeability, but a lower B to A permeability in order to be well-absorbed. […] The A-B permeability is much higher than the B-A permeability, thus both compounds are absorbed well in vitro.

Series [6] is described as follows: In vitro metabolism assay in liver microsomes. The series is classed as in vitro ADME. Here is the method: The in vitro metabolism assay was performed in liver microsomes. […] This half-live is higher than the ones of known drugs such as imipramine and others, therefore, it seems that A-1 is not quickly cleared from the circulation and, thus, remain available in the circulation for a sufficient period of time.
On the technique in general: Microsomes from liver hold many membrane-bound enzymes, among them those of drug oxidation.

The target in series [7] is T3, hERG (Homo sapiens, UniProt Q12809).
T3 construct: expressed in transfected cells; host or cells: CHO cells
T3 sequence (Q12809 whole entry): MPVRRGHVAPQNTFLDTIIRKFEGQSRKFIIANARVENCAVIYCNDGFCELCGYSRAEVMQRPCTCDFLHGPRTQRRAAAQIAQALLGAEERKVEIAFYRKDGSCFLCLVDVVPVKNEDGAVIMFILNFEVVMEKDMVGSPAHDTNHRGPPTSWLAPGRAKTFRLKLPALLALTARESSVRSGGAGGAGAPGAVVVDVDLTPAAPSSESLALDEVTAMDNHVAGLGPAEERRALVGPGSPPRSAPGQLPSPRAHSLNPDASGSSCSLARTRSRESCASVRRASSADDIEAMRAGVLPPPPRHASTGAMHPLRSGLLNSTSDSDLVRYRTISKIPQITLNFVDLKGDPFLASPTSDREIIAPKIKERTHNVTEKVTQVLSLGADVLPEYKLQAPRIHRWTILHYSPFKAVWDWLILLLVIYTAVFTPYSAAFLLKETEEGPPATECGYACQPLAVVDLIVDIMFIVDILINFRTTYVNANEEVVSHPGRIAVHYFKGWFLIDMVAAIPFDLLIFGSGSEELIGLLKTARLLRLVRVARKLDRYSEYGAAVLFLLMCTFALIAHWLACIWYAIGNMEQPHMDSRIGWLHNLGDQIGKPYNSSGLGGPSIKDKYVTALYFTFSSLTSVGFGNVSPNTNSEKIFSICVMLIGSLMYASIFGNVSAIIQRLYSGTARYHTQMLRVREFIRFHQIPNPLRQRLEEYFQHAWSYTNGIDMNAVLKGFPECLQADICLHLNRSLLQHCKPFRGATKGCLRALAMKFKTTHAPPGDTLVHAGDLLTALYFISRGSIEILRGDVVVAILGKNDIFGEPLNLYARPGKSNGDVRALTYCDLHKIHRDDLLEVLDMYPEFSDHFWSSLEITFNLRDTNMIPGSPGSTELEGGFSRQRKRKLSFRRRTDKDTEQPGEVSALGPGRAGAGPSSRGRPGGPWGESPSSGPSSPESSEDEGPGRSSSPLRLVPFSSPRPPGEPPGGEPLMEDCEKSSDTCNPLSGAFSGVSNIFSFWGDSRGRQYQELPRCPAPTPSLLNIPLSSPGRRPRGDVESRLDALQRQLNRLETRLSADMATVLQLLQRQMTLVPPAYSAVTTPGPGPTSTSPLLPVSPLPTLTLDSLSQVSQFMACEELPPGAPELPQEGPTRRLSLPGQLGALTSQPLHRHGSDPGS
As to the kind of experiment: Cardiac toxicity assay, hERG inhibition in CHO cells. The conditions noted are these: for cardiotoxicity (conclusion): from hERG assay. The series is classed as cell-based. As to the method: The assay of cardiac toxicity is performed on CHO cells that express the human ether-a-go-go related gene (hERG) that encodes the inward rectifying voltage gated potassium channel in the heart, which is involved in cardiac repolarisation. Inhibition of the hERG may cause potentially fatal ventricular tachyarrhythmia.
(Block of hERG is tested as a sign of cardiac risk.)

The test system of series [8] is BLM-induced pulmonary fibrosis. The series can be described thus: Bleomycin (BLM)-induced pulmonary fibrosis in mice, dosing from one day before BLM. Type of series: in vivo, C57Bl6/J mice. Here is the method: 10-week-old male wild-type C57Bl6/J animals were administered a saline solution of bleomycin (BLM) directly to the lungs via the orotracheal route. The dose of bleomycin was 0.8 U/kg. […] All animals were monitored daily until the 14th day after the BLM injection when they were killed. […] Serum, broncheoalveolar fluid and lung tissue samples were taken at the end point of the experiment and were used to assess the severity of fibrosis for each animal.
Blood serum was collected for each animal and levels of ALT and AST transaminases, which are markers of liver damage, were assessed by using an automated biochemical analyzer.
Next, in the collected broncheoalveolar fluid, the number of cells as well as the total protein concentration were assessed as indicators of inflammation and endothelial penetration, respectively.
Additionally, in sections of lung tissue isolated from the animals, fibrosis was assessed after staining with hematoxylin and eosin.
The mRNA levels of fibrosis-related genes col1α1 (collagen 1α1) in whole lung RNA samples were also estimated.

Series [9] has as its system BLM-induced pulmonary fibrosis. As to the kind of experiment: BLM-induced pulmonary fibrosis in mice, inhalation in therapeutic mode. Type of series: in vivo, C57B16/J mice. Particulars: inhalation 15 mg/Kg twice daily for 7 days, from 7d post BLM. Here is the method:
To explore the therapeutic potential of ATX inhibition in pulmonary fibrosis, BLM was administered to 8-10-week-old C57B16/J mice. Subsequently, the pharmaceutical compound A-1 was delivered for 7 days twice daily via inhalation (1 ml of 6.5 mg/ml for 10 mins/6 mice, corresponding to 15 mg/Kg per mouse) to conscious, gently re-strained mice, in a therapeutic mode (7d post BLM).

The mark [10] stands for this setting: 30 mg/kg, 2 doses daily, vs B+V group.

Entries after “also recorded” stand apart in the source; their conditions may differ.

Take `O=C1NC(=O)C(Cc2ccc(OCCN3CCN(C(=O)OCc4cc(Cl)cc(Cl)c4)CC3)cc2)S1` (centres unmarked) [A-1, 3,5-dichlorobenzyl4-(2-(4-((2,4-dioxothiazolidin-5-yl)methyl)phenoxy)ethyl)piperazine-1-carboxylate]: the IC50 in [1] was determined as 190 nM. Further, the “mode of inhibition against ATX” value in series [2] is recorded as “non-competitive inhibition”. The “inhibition of choline oxidase” value in [3] was “no inhibition; also recorded: Neither compound showed any detectable inhibition”. In series [4], the “inhibition of HRP peroxidase” value is given as “no inhibition; also recorded: Neither compound showed any detectable inhibition”. This molecule had a Papp A→B in series [5] (A to B) of 3.7 ×10⁻⁶ cm/s. The molecule also yielded an apparent permeability from basolateral to apical (Papp B→A) in series [5] (B to A) of 0.8 ×10⁻⁶ cm/s. The microsomal CLint in [6] (liver microsomes, read-out: Clint (intrinsic clearance)) stood at 329 µL/min/mg. This molecule also registered a half-life in series [6] (microsomes) of 21 min. Moreover, in [7], the IC50 was determined as 12000 nM and the “cardiotoxicity (conclusion)” value is listed as “not cardiotoxic; also recorded: does not exhibit cardiotoxicity”. Further, the “side effects during the model” value in [8] (30 mg/kg, 2 doses daily, 14 days post BLM, vs untreated group) is “did not suffer any unwanted side effects”. Moreover, in series [8] (setting [10]), the “fibrotic areas in lung sections, hematoxylin and eosin” value is given as “less fibrotic areas”; the “number of cells in bronchoalveolar fluid” value is on record as “reduced number of cells”; the “total protein concentration in bronchoalveolar fluid” value was “lower levels”. For the same molecule, the “col1α1 mRNA levels in whole lung” value in series [8] (30 mg/kg, 2 doses daily, vs B+V, restored to S+V level) is recorded as “reduces the mRNA levels (expression) of col1α1 statistically significantly”. The “serum ALT level” value in series [8] (30 mg/kg, 2 doses daily, normal range 28-132 U/L) is “normal”. For the same molecule, in [8] (30 mg/kg, 2 doses daily, normal range 59-247 U/L), the “serum AST level” value is given as “normal”. Also, in [8] (from ALT and AST levels), the “liver toxicity / hepatotoxicity (conclusion)” value is reported as “does not cause any adverse toxicity to the liver; also recorded: does not exhibit hepatotoxicity”. In series [9], the “inflammatory cells in BALF” value is reported as “significantly reduced”; the “lung architecture, H&E staining” value is listed as “prevented BLM-induced architectural distortion”; the “lung respiratory functions (FlexiVent)” value is reported as “relative protection”; the “vascular leak and pulmonary edema (total protein concentration in BALF)” value is given as “noteworthy decrease”.

In the case of `O=C1NC(=O)C(Cc2ccc(OCCC3CCN(C(=O)OCc4cc(Cl)cc(Cl)c4)CC3)cc2)S1` (centres unmarked) [A-3, 3,5-dichlorobenzyl 4-(2-(4-((2,4-dioxothiazolidin-5-yl)methyl)phenoxy)ethyl)piperidine-1-carboxylate], the IC50 in [1] turned out to be 30 nM. Also, in series [2], the “mode of inhibition against ATX” value is listed as “non-competitive inhibition”. The “inhibition of choline oxidase” value in [3] was “no inhibition; also recorded: Neither compound showed any detectable inhibition”. For the same molecule, the “inhibition of HRP peroxidase” value in [4] is given as “no inhibition; also recorded: Neither compound showed any detectable inhibition”. Moreover, the “cardiotoxicity (conclusion)” value in series [7] is “not cardiotoxic; also recorded: does not exhibit cardiotoxicity”. In series [7] (human, at 25 μM), the inhibition at 25 µM is 11%.

`Cc1c(C)c2c(c(C)c1O)CCC(C)(COc1ccc(CC3SC(=O)NC3=O)cc1)O2` (centres unmarked) [TGL, troglitazone, reference compound]: in series [1], the IC50 came out at 610 nM.

For orientation: IC50 means the concentration at which inhibition is half-maximal. For orientation: Papp A→B means the apparent permeability from the apical to the basolateral side of a cell layer. Usually Papp B→A stands for the apparent permeability from the basolateral to the apical side of a cell layer. In general, half-life refers to how long it takes for the measured level to halve. The inhibition is the drop in the measured response relative to a control, in per cent.
